Assay results taken from patent publication US20240366540A1, “MITOFUSIN INHIBITORS AND USES THEREOF” (Albert Einstein College of Medicine, priority 2021, published 2024).

Tested on: MOLM13 cells
Experiment: Caspase 3/7 activation in MOLM13 cells with AMG-176
Assay type: cell-based
Conditions: increasing concentrations of AMG-176 and MFI8
Procedure: Caspase-3/7 activation assay. Cells (5×10^3 cells/well) were seeded in a 96-well white plate and treated with MASM7, MFI8. Caspase 3/7 activation was measured after 6 hr by addition of the Caspase-Glo 3/7 reagent according to the manufacturer's protocol (Promega). Luminescence was detected by a F200 PRO microplate reader (TECAN). Caspase assays were performed in at least triplicate and the data normalized to vehicle-treated control wells. Dilutions of MASM7 or MFI8 were performed using a TECAN D300e Digital Dispenser from 10 mM stocks.

Cc1cccc(NC(C)c2cc(Cl)ccc2O)c1C (stereo not shown) [MFI8, 4-Chloro-2-(1-((2,3-dimethylphenyl)amino)ethyl)phenol]
caspase 3/7 activation in response to AMG-176: sensitizes cells to caspase activation
